According to patent US7321002B2, “Chiral integrin modulators and methods of use thereof” (Billings Pharmaceuticals, Inc., priority 2000, dated 2008):

Experiments:
[1] = tested on: HIV-1RF-infected H9 cells; assay: HIV-induced syncytium formation: fusion of intact H9 cells with HIV-1RF-infected H9 cells; format: cell-based; conditions: H9 + HIV-1RF-infected H9 cells, 6 to 15 hours at 37° C., FIG. 1
From the text: For all the curves, the effect of ajoene enantiomers and enantiomer mixtures on the fusion of cultured, intact H9 cells with HIV-1RF-infected H9 cells is disclosed. The vertical graph axis expresses the maximum amount of syncytia formed in the absence of the compounds (100 percent), while the points on the curves represent percentages of such an amount of syncytia formed in the presence of varying concentrations of the compounds and compound mixtures (micromoles per liter).
Another such method is based on the inhibition of HIV-mediated syncytium formation, a phenomenon known to depend on the functional activity of integrins. The purified Z enantiomers, racemic E-ajoene, and the original 3:1 mixture of racemic Z- and E-ajoenes were taken up in DMSO at a concentration of 10 mg/mL. Dilutions were made in RPMI 1640 medium containing 10% fetal calf serum and 10 mM HEPES (cRPMW). HIV-1RF-infected H9 cells and uninfected H9 cells were washed with cRPMI and resuspended in cRPMI at a density of 4×10^6 per mL. Uninfected cells (50 μL) were mixed with serial dilutions of the compounds (100 μL) and incubated at 37° C. for30 minutes before adding and mixing 50 μL of infected H9 cells. The plates were incubated at 37° C. for 6 to 15 hours before scoring syncytium formation.
The purified enantiomers were taken up in DMSO at a concentration of 10 mg/mL. Dilutions were made in RPMI 1640 medium containing 10% fetal calf serum and 10 mM HEPES (cRPMI). H9 cells (ATCC, Rockville, Md.) infected with HIV-1RF, (NIH AIDS Repository, Rockville, Md.) and uninfected H9 cells were washed with cRPMI and resuspended in cRPMI at a density of 4×10^6 per mL. Uninfected cells (50 μL) were mixed with serial dilutions of the compounds (100 μL) and incubated at 37° C. for 30 min before adding and mixing 50 μL of infected H9 cells. The plates were incubated at 37° C. for 6 to 15 hours before scoring syncytium formation.

VLA-4 = target: T1, VLA-4 (Homo sapiens, UniProt P05556+P13612); assay: Inhibition of VLA-4-mediated adhesion of enzyme-labeled PM1 cells to VCAM-1-coated substrata; format: cell-based; conditions: PM1 cells on immobilized VCAM-1; listed as Z(−) enantiomer of ajoene
T1 construct: host or cells: PM1 cells (VLA-4); COS7 cells secrete the VCAM/IgG ligand
Protocol: In addition, the invention discloses methods whereby the integrin-modulating activity of ajoene enantiomers may be assessed. One such method involves VLA-4-mediated adhesion of enzyme-labeled PM1 cells to VCAM-1-coated artificial substrata. Specifically, the cells were exposed to isolated ajoene enantiomers (or the vehicle thereof) and allowed to adhere to immobilized VCAM-1. Thereafter, the adherent cells were lyzed and, following addition of the substrate of the enzyme and incubation, the activity of the enzyme was measured spectrophotometrically. The value of this parameter, characterizing the number of the adherent cells, is inversely proportional to the integrin-modulating activity of the compound.
Integrin-modulating activity of the enantiomers was compared in a well-defined system of inhibition of VLA-4-mediated adhesion of enzyme-labeled PM1 cells (NIH AIDS Repository, Rockville, Md.) to VCAM-1-coated artificial substrata. In this experiment, enzyme-linked immunosorbent assay (ELISA) plates were coated with rabbit anti-human IgG (Fc-specific). Aliquots of 100 μL of supernatant from VCAM/IgG-secreting COS7 cells were added to each well, the plates incubated at 37° C. for 1 hour, and the wells washed with phosphate-buffered saline (PBS). […] The reaction was stopped with 0.5 M H2SO4, andthe optical density of the wells, read at 450 nm. […]

T1 sequence (P13612 34-1032): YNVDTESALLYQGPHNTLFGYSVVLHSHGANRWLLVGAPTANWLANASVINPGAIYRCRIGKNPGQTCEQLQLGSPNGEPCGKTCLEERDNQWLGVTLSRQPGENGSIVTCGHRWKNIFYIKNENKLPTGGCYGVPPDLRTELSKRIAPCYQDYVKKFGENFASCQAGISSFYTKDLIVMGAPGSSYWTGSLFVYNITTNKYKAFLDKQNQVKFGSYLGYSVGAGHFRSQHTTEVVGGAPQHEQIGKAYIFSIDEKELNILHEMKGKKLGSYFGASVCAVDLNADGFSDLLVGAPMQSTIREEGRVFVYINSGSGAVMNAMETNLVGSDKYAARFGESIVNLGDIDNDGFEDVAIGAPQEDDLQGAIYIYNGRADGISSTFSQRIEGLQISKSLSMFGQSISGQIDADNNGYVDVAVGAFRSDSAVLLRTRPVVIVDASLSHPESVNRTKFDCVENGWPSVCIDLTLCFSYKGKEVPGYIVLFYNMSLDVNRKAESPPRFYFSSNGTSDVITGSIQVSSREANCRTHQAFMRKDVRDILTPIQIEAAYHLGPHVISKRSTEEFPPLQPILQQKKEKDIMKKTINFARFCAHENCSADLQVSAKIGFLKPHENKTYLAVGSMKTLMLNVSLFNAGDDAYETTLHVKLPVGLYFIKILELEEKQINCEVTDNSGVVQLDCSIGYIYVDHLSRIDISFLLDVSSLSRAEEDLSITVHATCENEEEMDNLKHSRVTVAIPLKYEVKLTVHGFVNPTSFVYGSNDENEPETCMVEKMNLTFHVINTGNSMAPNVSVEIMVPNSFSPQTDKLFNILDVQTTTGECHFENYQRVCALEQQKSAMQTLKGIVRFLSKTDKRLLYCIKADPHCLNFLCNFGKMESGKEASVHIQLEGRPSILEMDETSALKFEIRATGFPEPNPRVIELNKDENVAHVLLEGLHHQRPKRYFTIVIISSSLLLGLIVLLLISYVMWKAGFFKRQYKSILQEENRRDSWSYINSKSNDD
T1 sequence (P05556 21-798): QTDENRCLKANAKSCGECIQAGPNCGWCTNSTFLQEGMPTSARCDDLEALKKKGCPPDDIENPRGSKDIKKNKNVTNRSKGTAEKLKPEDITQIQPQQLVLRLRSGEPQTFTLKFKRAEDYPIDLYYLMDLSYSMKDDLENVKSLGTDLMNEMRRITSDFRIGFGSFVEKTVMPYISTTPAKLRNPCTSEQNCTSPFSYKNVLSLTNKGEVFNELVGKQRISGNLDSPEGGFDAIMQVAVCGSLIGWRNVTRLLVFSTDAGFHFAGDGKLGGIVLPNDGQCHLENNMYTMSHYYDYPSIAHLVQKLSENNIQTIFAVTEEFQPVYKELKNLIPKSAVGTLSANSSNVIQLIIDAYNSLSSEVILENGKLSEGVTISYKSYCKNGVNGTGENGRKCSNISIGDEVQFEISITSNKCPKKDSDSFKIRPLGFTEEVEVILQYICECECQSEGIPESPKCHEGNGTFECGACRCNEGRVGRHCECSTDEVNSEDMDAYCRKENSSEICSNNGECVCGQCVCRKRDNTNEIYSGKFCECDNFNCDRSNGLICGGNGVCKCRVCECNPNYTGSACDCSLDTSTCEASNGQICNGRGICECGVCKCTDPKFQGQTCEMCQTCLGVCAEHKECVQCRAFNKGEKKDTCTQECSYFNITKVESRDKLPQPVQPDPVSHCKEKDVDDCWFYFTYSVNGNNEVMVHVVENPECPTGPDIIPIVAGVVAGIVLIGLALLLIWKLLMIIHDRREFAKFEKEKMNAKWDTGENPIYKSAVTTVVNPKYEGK

Row | adhesion-inhibiting activity relative to the other enantiomers / original 3:1 mixture (VLA-4) [fold] | Structure (SMILES) | IC100 of syncytium formation [1] [micromoles per liter] | IC100 of syncytium formation ([1]; listed as Z(+)) [micromoles per liter] | IC100 of syncytium formation ([1]; listed as Z(−) enantiomer) [micromoles per liter]
1 |  | C=CCSS/C=C/C[S+]([O-])CC=C (racemic) [racemic E-ajoene, reference compound] | 50 |  | 
2 |  | C=CCSSC=CC[S+]([O-])CC=C (racemic) [unseparated 3:1 mixture of racemic Z- and E-ajoenes, 4,5,9-trithiadodeca-1,6,11-triene-9-oxide, reference compound] | 50 |  | 
3 |  | C=CCSS/C=C\C[S+]([O-])CC=C (stereo not drawn) [Z(+)-ajoene, Z(+)-4,5,9-trithiadodeca-1,6,11-triene-9-oxide] |  | 50 | 
4 | 4 | C=CCSS/C=C\C[S+]([O-])CC=C (stereo not drawn) [Z(−)-ajoene, Z(−)-4,5,9-trithiadodeca-1,6,11-triene-9-oxide] | 12.5 |  | 12.5
